The values below come from US20240417747A1 (priority 2021, published 2024).

Molecules are shown by their SMILES. “Also recorded” adds a separate entry of the source. Structures can show the parent of a compound that is named as a salt. Where two headings read alike, the source gives them in different places.

The subject of assay [1] is CLas-positive stems of Valencia sweet orange. The settings on record: branches soaked in DPI 25 μM, 48 h, vs water.
Assay [2] deals with HLB positive C. sinensis 'Valencia' trees. The format is in vivo, Citrus sinensis. The conditions noted are these: for H2O2 concentration in exudates of phloem-enriched bark tissues / cell death (ion leakage) in exudates of phloem-enriched bark tissues: weekly foliar spray, six weeks.
For assay [3], the system named is C. sinensis protoplast cells. The format is cell-based, Citrus sinensis.
The test system of assay [4] is HLB positive C. sinensis 'Valencia' and 'Vernia'. The format is in vivo, Citrus sinensis.
The test system of assay [5] is ROS related genes in C. sinensis protoplast cells. The format is cell-based, Citrus sinensis. The settings on record: GA 5 mg/L, 1.8 mM H2O2, 6 h.
The test system of assay [6] is immortalized rat embryo fibroblasts. The settings on record: cited from earlier work.
In another assay the test system is Arabidopsis. The settings on record: cited from earlier work.
Assay [7] relates to CLas-positive 5-year-old C. sinensis trees. The format is in vivo, Citrus sinensis. The settings on record: 7 days post trunk injection of streptomycin.
Setting [8] is: uric acid 1.8 mM, rutin 0.6 mM, listed as Uric acid.
The mark [9] stands for this setting: GA 5 mg/L foliar spray weekly for six weeks.
Setting [10] is: GA 25 mg/L foliar spray weekly for six weeks.
The mark [11] stands for this setting: 6-year-old 'Valencia' and 'Vernia', eight months after GA application.
Setting [12] is: GA 1,247 ppm foliar spray, 8 months after application.

As for `c1ccc2c(c1)[I+]c1ccccc1-2` [DPI, diphenyleneiodonium], the “ROS levels (H2O2 concentration) in phloem-enriched bark tissues of CLas-positive stems” value in assay [1] is recorded as “reduced”.
As to `O=c1[nH]c(=O)c2[nH]c(=O)[nH]c2[nH]1` [uric acid], the “HLB symptoms compared with before treatment” value in assay [2] (six weeks after first weekly foliar spray, uric acid 1.8 mM, rutin 0.6 mM, GA) is reported as “significantly reduced”. In addition, in assay [2] (uric acid 1.8 mM, rutin 0.6 mM), the “H2O2 concentration in exudates of phloem-enriched bark tissues” value is “reduced” and the “cell death (ion leakage) in exudates of phloem-enriched bark tissues” value was “reduced”. In assay [2] (setting [8]), the “H2O2 concentration in exudates of phloem-enriched bark tissues” value is listed as “reduce” and the “cell death (ion leakage) in exudates of phloem-enriched bark tissues” value is “reduce”. Further, the H2O2 concentration result in assay [3] (addition of uric acid 0.2 mM (text cites FIG. 5C)) is recorded as “reduced”. The “cell death of protoplast cells caused by H2O2” value in assay [3] (addition of uric acid 0.2 mM, 24 h) was “reduced”.
Take `C=C1C[C@]23C[C@@]1(O)CC[C@H]2[C@@]12C=C[C@H](O)[C@@](C)(C(=O)O1)[C@H]2[C@@H]3C(=O)O` [GA, Gibberellic acid]: in assay [2] (setting [9]), the “H2O2 caused by CLas (phloem exudates)” value is reported as “reduced” and the “ion leakage caused by CLas (phloem exudates)” value is reported as “reduced”. For the same compound, in assay [2] (setting [10]), the “H2O2 caused by CLas (phloem exudates)” value is “reduced” and the “ion leakage caused by CLas (phloem exudates)” value is “reduced”. Moreover, the “growth as indicated by new flushes” value in assay [2] (six weeks after foliar spray, vs water control) is listed as “promoted growth”. Further, in assay [4] (setting [11]), the “plant growth: canopy volume” value is “significantly promoted”, the “plant growth: tree height” value is recorded as “significantly promoted” and the “plant growth: trunk diameter” value is “significantly promoted”. Moreover, in assay [4] (setting [12]), the HLB disease symptoms entry is “significantly reduced; also recorded: suppresses” and the “percentage of symptomatic leaves (ratio symptomatic leaves vs total leaves)” value is listed as “significantly reduced”. The “HLB disease incidence (infected trees)” value in assay [4] (in vivo) amounted to 100%. In assay [5], the “expression of RbohD” value is given as “inhibited”; the “expression of genes encoding H2O2 scavenging enzymes catalases, ascorbate peroxidases and glutathione peroxidases” value is “induced”. In addition, the “death of C. sinensis protoplast cells caused by 1.8 mM H2O2” value in assay [3] (GA 5 mg/L, 24 h) was “suppresses”.
As for `OO` [H2O2], the concentration inducing necrosis in assay [6] is 700 µmol/L. Moreover, the “concentration inhibiting growth of plants” value in the assay with Arabidopsis is recorded as 1 mM. In addition, the “cell death of C. sinensis protoplast cells” value was “not” in assay [3] (H2O2 0.6 mmol/L or lower, 24 h) and “induced cell death” in assay [3] (H2O2 1.8 mmol/L, 24 h). Besides, in assay [3] (different concentrations of H2O2, 24 h), the “viability of protoplast cells (FDA staining)” value is reported as “kills”.
`[H]/N=C(/N)N[C@H]1[C@H](O)[C@@H](O)[C@H](O[C@@H]2O[C@@H](C)[C@](O)(C=O)[C@H]2O[C@@H]2O[C@@H](CO)[C@H](O)[C@@H](O)[C@@H]2NC)[C@@H](N/C(N)=N\[H])[C@@H]1O` [streptomycin, streptomycin sulfate]: in assay [7], the “H2O2 content in the phloem tissues” value is listed as “significantly reduced” and the “ion leakage in the phloem tissues” value is on record as “significantly reduced”. Further, in assay [7] (phloem tissues), the CLas titers entry is listed as “significantly reduced”.
